Test results published in patent US4416884A, “Piperazinylbenzoheterocyclic compounds” (Otsuka Pharmaceutical Co., Ltd., priority 1978, dated 1983).
Converted amounts (≈) assume the structure as drawn. Structures can show the parent of a compound that is named as a salt. Where two headings read alike, the source gives them in different places.

Columns and labels:
Assay in all cases: antimicrobial activity, serial dilution method on agar plate
Assay type in all cases: cell-based
[1] = system: Escherichia Coli NIHJ JC-2 (IFO 12734); conditions: for MIC: Escherichia coli, read-out: Minimum Inhibitory Concentration
Method: (§1) The antimicrobial activity of the following test compounds on various test organisms listed below was determined by the serial dilution method on agar plate (Heart Infusion agar produced by Difco Co.) (see CHEMOTHERAPY 22, pp. 1126-1128 (1974)), and the minimum inhibitory concentrations (mcg/ml) obtained are shown in Table 1 below.
(§2) A sample of each test organism was prepared so that the population of the organism was 1×10^8 cells/ml (O.D. 660 mμ=0.07 to 0.16) and 1×10^6 cells/ml (which was obtained by diluting the above 1×10^8 cells/ml preparation).

Klebsiella pneumoniae = system: Klebsiella pneumoniae
Method: as §1, §2

Proteus rettgeri NIH 96 = conditions: Providencia rettgeri
Method: as §1, §2

[2] = system: Pseudomonas aeruginosa ATCC 10145
Method: as §1, §2

[3] = system: Pseudomonas aeruginosa E-2
Method: as §1, §2

[4] = system: Pseudomonas aeruginosa NCTC 10490
Method: as §1, §2

[5] = system: Salmonella typhi 0-901 (NCTC 8393); conditions: Salmonella enterica
Method: as §1, §2

[6] = system: Serattia marcescens IFO 12648
Method: as §1, §2

Shigella Sonnei EW 33 = conditions: read-out: Minimum Inhibitory Concentration
Method: as §1, §2

[7] = system: Staphylococcus aureus FDA 209 P
Method: as §1, §2

[8] = system: Streptococcus pyogenes IID S-23
Method: as §1, §2

[9] = read-out: Minimum Inhibitory Concentration, inoculum 1 × 10^6 cells/ml
[10] = read-out: Minimum Inhibitory Concentration, inoculum 1 × 10^8 cells/ml
[11] = NIH96, read-out: Minimum Inhibitory Concentration, inoculum 1 × 10^8 cells/ml
[12] = ATCC10145, read-out: Minimum Inhibitory Concentration, inoculum 1 × 10^8 cells/ml
[13] = E2, read-out: Minimum Inhibitory Concentration, inoculum 1 × 10^8 cells/ml
[14] = NCTC10490, read-out: Minimum Inhibitory Concentration, inoculum 1 × 10^8 cells/ml
[15] = inoculum 1 × 10^6 cells/ml, read-out: Minimum Inhibitory Concentration
[16] = inoculum 1 × 10^8 cells/ml, read-out: Minimum Inhibitory Concentration
[17] = FDA209, read-out: Minimum Inhibitory Concentration, inoculum 1 × 10^8 cells/ml
[18] = IIDS23, read-out: Minimum Inhibitory Concentration, inoculum 1 × 10^8 cells/ml
[19] = NIH96, inoculum 1 × 10^6 cells/ml, read-out: Minimum Inhibitory Concentration
[20] = NIH96, inoculum 1 × 10^8 cells/ml, read-out: Minimum Inhibitory Concentration
[21] = ATCC10145, inoculum 1 × 10^6 cells/ml, read-out: Minimum Inhibitory Concentration
[22] = ATCC10145, inoculum 1 × 10^8 cells/ml, read-out: Minimum Inhibitory Concentration
[23] = E2, inoculum 1 × 10^6 cells/ml, read-out: Minimum Inhibitory Concentration
[24] = E2, inoculum 1 × 10^8 cells/ml, read-out: Minimum Inhibitory Concentration
[25] = NCTC10490, inoculum 1 × 10^6 cells/ml, read-out: Minimum Inhibitory Concentration
[26] = NCTC10490, inoculum 1 × 10^8 cells/ml, read-out: Minimum Inhibitory Concentration
[27] = FDA209, inoculum 1 × 10^6 cells/ml, read-out: Minimum Inhibitory Concentration
[28] = FDA209, inoculum 1 × 10^8 cells/ml, read-out: Minimum Inhibitory Concentration
[29] = IIDS23, inoculum 1 × 10^6 cells/ml, read-out: Minimum Inhibitory Concentration
[30] = IIDS23, inoculum 1 × 10^8 cells/ml, read-out: Minimum Inhibitory Concentration

| SMILES | MIC [1] [µg/mL] | MIC (Klebsiella pneumoniae; [10]) [µg/mL] | MIC (Proteus rettgeri NIH 96; [11]) [µg/mL] | MIC [2, 12] [µg/mL] | MIC [3, 13] [µg/mL] | MIC [4, 14] [µg/mL] | MIC [5, 16] [µg/mL] | MIC [6, 10] [µg/mL] | MIC (Shigella Sonnei EW 33; inoculum 1 × 10^6 cells/ml) [µg/mL] | MIC (Shigella Sonnei EW 33; inoculum 1 × 10^8 cells/ml) [µg/mL] | MIC [7, 17] [µg/mL] | MIC [8, 18] [µg/mL] | MIC ([1]; inoculum 1 × 10^8 cells/ml) [µg/mL] | MIC (Klebsiella pneumoniae; [16]) [µg/mL] | MIC (Proteus rettgeri NIH 96; [20]) [µg/mL] | MIC [2, 22] [µg/mL] | MIC [3, 24] [µg/mL] | MIC [5, 10] [µg/mL] | MIC [7, 28] [µg/mL] | MIC [8, 30] [µg/mL] | further results |
| --- | --- | --- | --- | --- | --- | --- | --- | --- | --- | --- | --- | --- | --- | --- | --- | --- | --- | --- | --- | --- | --- |
| CC1Cc2c(N3CCNCC3)c(Cl)cc3c(=O)c(C(=O)O)cn1c23 (stereo not drawn) [Compound Y, 8-Chloro-9-(1-piperazinyl)-2-methyl-6-oxo-1,2-dihydro-6H--pyrrolo[3,2,1-ij]-quinoline-5-carboxylic acid] | 0.2 (≈ 0.575 µM) | 0.4 (≈ 1.15 µM) | 0.2 (≈ 0.575 µM) | 1.6 (≈ 4.6 µM) | 3.1 (≈ 8.91 µM) | 1.6 (≈ 4.6 µM) | 0.1 (≈ 0.288 µM) | 0.8 (≈ 2.3 µM) | ≤ 0.05 | 0.1 (≈ 0.288 µM) | 3.1 (≈ 8.91 µM) | 12.5 (≈ 35.9 µM) |  |  |  |  |  |  |  |  | Minimum Inhibitory Concentration ([1]; inoculum 1 × 10^6 cells/ml): 0.2 µg/mL; MIC (Klebsiella pneumoniae; [9]): 0.2 µg/mL (≈ 0.575 µM); MIC (Proteus rettgeri NIH 96; NIH96, read-out: Minimum Inhibitory Concentration, inoculum 1 × 10^6 cells/ml): 0.1 µg/mL (≈ 0.288 µM); MIC ([2]; ATCC10145, read-out: Minimum Inhibitory Concentration, inoculum 1 × 10^6 cells/ml): 1.6 µg/mL (≈ 4.6 µM); MIC ([3]; E2, read-out: Minimum Inhibitory Concentration, inoculum 1 × 10^6 cells/ml): 3.1 µg/mL (≈ 8.91 µM); MIC ([4]; NCTC10490, read-out: Minimum Inhibitory Concentration, inoculum 1 × 10^6 cells/ml): 1.6 µg/mL (≈ 4.6 µM); MIC [5, 15]: ≤ 0.05 µg/mL; MIC [6, 9]: 0.4 µg/mL (≈ 1.15 µM); MIC ([7]; FDA209, read-out: Minimum Inhibitory Concentration, inoculum 1 × 10^6 cells/ml): 3.1 µg/mL (≈ 8.91 µM); MIC ([8]; IIDS23, read-out: Minimum Inhibitory Concentration, inoculum 1 × 10^6 cells/ml): 6.3 µg/mL (≈ 18.1 µM) |
| CC1CCc2c(N3CCN(C)CC3)c(Cl)cc3c(=O)c(C(=O)O)cn1c23 (stereo not drawn) [Compound U, 8-(4-Methyl-1-piperazinyl)-9-chloro-5-methyl-6,7-dihydro-1-oxo-1H,5H--benzo[ij]-quinolizine-2-carboxylic acid] |  |  |  |  |  |  |  |  | 0.1 (≈ 0.266 µM) | 0.2 (≈ 0.532 µM) |  |  | 0.2 (≈ 0.532 µM) | 0.2 (≈ 0.532 µM) | 0.4 (≈ 1.06 µM) | 3.1 (≈ 8.25 µM) | 6.3 (≈ 16.8 µM) | ≤ 0.05 | 0.8 (≈ 2.13 µM) | 3.1 (≈ 8.25 µM) | MIC ([1]; inoculum 1 × 10^6 cells/ml): 0.2 µg/mL (≈ 0.532 µM); MIC (Klebsiella pneumoniae; [15]): 0.2 µg/mL (≈ 0.532 µM); MIC (Proteus rettgeri NIH 96; [19]): 0.4 µg/mL (≈ 1.06 µM); MIC [2, 21]: 3.1 µg/mL (≈ 8.25 µM); MIC [3, 23]: 6.3 µg/mL (≈ 16.8 µM); MIC [4, 25]: 1.6 µg/mL (≈ 4.26 µM); MIC [4, 26]: 1.6 µg/mL (≈ 4.26 µM); MIC [5, 9]: ≤ 0.05 µg/mL; MIC [6, 15]: 0.4 µg/mL (≈ 1.06 µM); MIC [6, 16]: 0.4 µg/mL (≈ 1.06 µM); MIC [7, 27]: 0.4 µg/mL (≈ 1.06 µM); MIC [8, 29]: 3.1 µg/mL (≈ 8.25 µM) |
| CC1CCc2c(N3CCN(C(=O)C(F)(F)F)CC3)c(Cl)cc3c(=O)c(C(=O)O)cn1c23 (stereo not drawn) [b] |  |  |  |  |  | 1.56 (≈ 3.41 µM) |  | 1.56 (≈ 3.41 µM) |  | 1.56 (≈ 3.41 µM) |  |  | 0.39 (≈ 0.852 µM) | 0.39 (≈ 0.852 µM) | 0.2 (≈ 0.437 µM) | 3.13 (≈ 6.84 µM) | 3.13 (≈ 6.84 µM) | 0.39 (≈ 0.852 µM) | 3.13 (≈ 6.84 µM) | 6.25 (≈ 13.7 µM) |  |
| CC1CCc2c(N3CCNCC3)c(F)cc3c(=O)c(C(=O)O)cn1c23 (stereo not drawn) [Compound X, 8-(1-Piperazinyl)-9-fluoro-5-methyl-6,7-dihydro-1-oxo-1H,5H--benzo[ij]quinolizine-2-carboxylic acid hydrobromide] | 0.4 | 0.4 | 0.1 | 1.6 | 1.6 | 1.6 | 0.1 | 0.8 |  | 0.2 | 0.8 | 3.1 |  |  |  |  |  |  |  |  |  |
| CC1CCc2c(N3CCN(C(=O)C(F)(F)C(F)(F)C(F)(F)F)CC3)c(Cl)cc3c(=O)c(C(=O)O)cn1c23 (stereo not drawn) [e] | 0.39 (≈ 0.699 µM) | 0.39 (≈ 0.699 µM) | 0.2 (≈ 0.359 µM) | 1.56 (≈ 2.8 µM) | 6.25 (≈ 11.2 µM) | 3.13 (≈ 5.61 µM) | 0.2 (≈ 0.359 µM) | 0.2 (≈ 0.359 µM) |  | 0.78 (≈ 1.4 µM) | 3.13 (≈ 5.61 µM) | 6.25 (≈ 11.2 µM) |  |  |  |  |  |  |  |  |  |
| CC1CCc2c(N3CCN(C=O)CC3)c(Cl)cc3c(=O)c(C(=O)O)cn1c23 (stereo not drawn) [Compound V, 8-(4-Formyl-1-piperazinyl)-9-chloro-5-methyl-6,7-dihydro-1-oxo-1H,5H--benzo[ij]-quinolizine-2-carboxylic acid] |  |  |  |  |  |  |  |  | 0.4 (≈ 1.03 µM) | 0.8 (≈ 2.05 µM) |  |  | 0.8 (≈ 2.05 µM) | 0.8 (≈ 2.05 µM) | 0.8 (≈ 2.05 µM) | 12.5 (≈ 32.1 µM) | 12.5 (≈ 32.1 µM) | 0.2 (≈ 0.513 µM) | 0.2 (≈ 0.513 µM) | 3.1 (≈ 7.95 µM) | MIC ([1]; inoculum 1 × 10^6 cells/ml): 0.8 µg/mL (≈ 2.05 µM); MIC (Klebsiella pneumoniae; [15]): 0.8 µg/mL (≈ 2.05 µM); MIC (Proteus rettgeri NIH 96; [19]): 0.8 µg/mL (≈ 2.05 µM); MIC [2, 21]: 12.5 µg/mL (≈ 32.1 µM); MIC [3, 23]: 6.3 µg/mL (≈ 16.2 µM); MIC [4, 25]: 1.6 µg/mL (≈ 4.1 µM); MIC [4, 26]: 3.1 µg/mL (≈ 7.95 µM); MIC [5, 9]: 0.2 µg/mL (≈ 0.513 µM); MIC [6, 15]: 3.1 µg/mL (≈ 7.95 µM); MIC [6, 16]: 3.1 µg/mL (≈ 7.95 µM); MIC [7, 27]: 0.2 µg/mL (≈ 0.513 µM); MIC [8, 29]: 1.6 µg/mL (≈ 4.1 µM) |
